Read-outs that look alike come from different tables or passages of the source.
What was measured:
[1] = Rat liver microsomal stability assay (RLM); type: in vitro ADME; conditions: 37° C., 1 h time course, read-out: RLMclearance
Source text: (§1) In vitro measurement of substrate metabolism can be determined using the microsomal cytochrome P450 mono-oxygenase system. This is a useful application in ranking clearance of a number of compounds by Phase I (including cytochrome P450) metabolism prior to in vivo assessment Measurement of intrinsic clearance using these methods also allows a comparison of species difference to be made to assist with translation of pharmacokinetic parameters from preclinical to clinical study.
(§2) Rat and Human Liver Microsomal Stability Assay (RLM and HLM Respectively)
(§3) Human and rat Liver microsomal assays were performed using pooled microsomes from the Pfizer Global Supply (BD Gentest™). Chemical reagents were purchased from commercial sources (Sigma-Aldrich) and drug entities synthesised at Pfizer Global Research. Incubation mixtures contained 50 mM phosphate buffer pH 7.4, 5 mM MgCl2, 5 mM isocitric acid and 1 unit/ml isocitric dehydrogenase. The microsomes were defrosted at room temperature and sufficient volumes added to give a final concentration of 0.5 nmol cytochrome P450/ml. Following the addition of 1 μM of substrate, the incubation was pre-incubated at 37° C. for 5 minutes. The reaction was then initiated by the addition of 1 mM NADP and incubation aliquots are taken over a 1 h time course. The reaction was subsequently stopped by addition of acetonitrile cooled on ice. The incubation mixture was then centrifuged and the supernatant removed for injection onto LC-MS/MS system. Providing that the substrate concentration is below the Km, the metabolism should be first order giving a log-linear plot of substrate disappearance over time. The gradient of this line is the first order rate constant (k) and this maybe converted to estimate a substrates intrinsic clearance when factoring in the protein concentration.
(§4) The intrinsic clearance in rat or human liver microsomes is calculated from:
(§5) Where, k=−slope of Ln concentration vs. time (min−1)

[2] = Human liver microsomal stability assay (HLM); type: in vitro ADME; conditions: 37° C., 1 h time course, read-out: HLM clearance
Source text: as §1, §2, §3, §4, §5

mu opioid receptor [3] = biological target: T1, mu opioid receptor (Homo sapiens, UniProt P35372); experiment: Beta-arrestin recruitment assay (DiscoveRx PathHunter); type: cell-based; set-up: host or cells: U2OS cells
Protocol: The ability of agonists to cause recruitment of beta-arrestin to the mu opioid receptor was measured using DiscoveRx PathHunter technology. A pro-linked tagged mu-opioid receptor and an EA-tagged beta-arrestin were expressed in U20S cells and beta-arrestin recruitment measured following the methodology in McGuinness et al., 2009 (J Biomol Screen 14:49-58, Characterizing cannabinoid CB2 receptor ligands using DiscoverRx PathHunter beta-arrestin assay—McGuinness D., Malikzay A., Visconti R., Lin K., Bayne M., Monsma F., Lunn C A.)
Data appear in the Table below under “arrestin EC50” in nM.
Target sequence in this assay (P35372 whole entry, species assumed): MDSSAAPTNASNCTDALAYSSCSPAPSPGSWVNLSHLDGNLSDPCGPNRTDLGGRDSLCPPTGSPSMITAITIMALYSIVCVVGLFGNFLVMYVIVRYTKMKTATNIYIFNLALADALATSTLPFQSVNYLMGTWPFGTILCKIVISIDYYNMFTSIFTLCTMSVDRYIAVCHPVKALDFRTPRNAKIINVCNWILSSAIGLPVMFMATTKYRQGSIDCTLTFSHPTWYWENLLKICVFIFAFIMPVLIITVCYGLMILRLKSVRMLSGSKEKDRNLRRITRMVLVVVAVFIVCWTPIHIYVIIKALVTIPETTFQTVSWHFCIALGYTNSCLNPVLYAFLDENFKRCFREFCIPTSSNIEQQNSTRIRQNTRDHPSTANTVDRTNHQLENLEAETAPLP
Target sequence in this assay (P32121 whole entry partner, species assumed): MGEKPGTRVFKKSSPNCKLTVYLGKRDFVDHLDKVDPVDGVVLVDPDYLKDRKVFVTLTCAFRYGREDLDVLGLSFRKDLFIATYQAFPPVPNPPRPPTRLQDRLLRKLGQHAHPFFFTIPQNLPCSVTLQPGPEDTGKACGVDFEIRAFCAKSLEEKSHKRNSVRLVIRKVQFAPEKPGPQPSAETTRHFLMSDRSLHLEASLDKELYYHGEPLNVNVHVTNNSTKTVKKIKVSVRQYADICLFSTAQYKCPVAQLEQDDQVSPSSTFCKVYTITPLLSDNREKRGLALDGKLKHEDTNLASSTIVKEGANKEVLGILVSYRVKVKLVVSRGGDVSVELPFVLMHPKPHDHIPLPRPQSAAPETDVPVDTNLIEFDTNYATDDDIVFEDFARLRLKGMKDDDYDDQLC

physchem = conditions: pH 7.4
Source text: LogD octanol (pH 7.4) is a measure of lipophilicity that accounts for both hydrophobic and hydrogen-bonding interactions of a given substrate. This assay is based on shake-flask methodology, performed in a fully automated manner in a 0.1M phosphate buffer pH7.4—octanol system.
After addition of the test substance in DMSO stock solution to the mixture and vigorous agitation followed by separation of the octanol and buffer layers by centrifugation, duplicate samples are removed from each layer and diluted prior to analysis by LC-MS/MS.
The duplicate log D values must be with 0.4 log units of each other and the positive controls must be within 0.2 log units of the known log D value.

mu opioid receptor [4] = biological target: T1, mu opioid receptor; experiment: Inhibition of forskolin stimulated cAMP production (alphascreen); type: cell-based; set-up: expressed in transfected cells; host or cells: CHO cells
Protocol: Forskolin Stimulated cAMP
The ability of mu opioid receptor agonists to inhibit forskolin stimulated cAMP production was measured in CHO cells recombinantly expressing the mu opioid receptor, using alphascreen technology as described in Nickolls et al., 2005, with the additional inclusion of 50 uM forskolin in the assay buffer. (J Pharmacol Exp Ther 313; 1281-88, Functional selectivity of melanocortin 4 receptor peptide and non-peptide agonists: Evidence for ligand specific conformational states. Nickolls S A., Fleck B., Hoare S., Maki R.)
Data appear in the Table below under “mu-opioid IC50” in nM.
Target sequence in this assay (P35372 whole entry, species assumed): as the sequence (P35372 whole entry, species assumed) above

[5] = octanol / 0.1M phosphate buffer pH 7.4, positive controls; cited from earlier work
[6] = pH 7.4, rat liver microsomes, 1 μM substrate
[7] = pH 7.4, human liver microsomes, 1 μM substrate
[8] = U20S cells expressing pro-linked tagged mu-opioid receptor and EA-tagged beta-arrestin, read-out: β-Arrestin EC50
[9] = CHO cells recombinantly expressing the mu opioid receptor, 50 uM forskolin, read-out: mu-opioid IC50

Row | Structure (SMILES) | microsomal CLint at 1 μM [1, 6] | microsomal CLint at 1 μM [2, 7] | EC50 (mu opioid receptor [3]; [8]) | logD (physchem) | EC50 (mu opioid receptor [3]) | also measured
1 | Cc1cc(O)cc(C)c1C[C@H](NC(=N)N)C(=O)N[C@H](C)C(=O)NCC(CNC(=N)N)Cc1ccccc1 (mixture of isomers) [Example 2] | 8.5 µL/min/mg | 15.9 µL/min/mg | 34.8 nM | -0.7 | – | –
2 | Cc1cc(O)cc(C)c1C[C@H](NC(=N)N)C(=O)N[C@H](C)C(=O)NC[C@H](Cc1ccccc1)NC(=N)N [Example 1, N-[Amino(imino)methyl]-2,6-dimethyl-L-tyrosyl-N-[(2S)-2-{[amino(imino)methyl]amino}-3-phenylpropyl]-D-alaninamide] | 8.5 µL/min/mg | 10.6 µL/min/mg | 41.4 nM | -0.2 | – | IC50 (mu opioid receptor [4]; [9]): 26 nM
3 | Cc1cc(O)cc(C)c1C[C@H](N=C(N(C)C)N(C)C)C(=O)N[C@H](C)C(=O)NC[C@H](Cc1ccccc1)NC(=N)N [Example 3] | – | – | – | – | 10000 nM | –
4 | C[C@@H](NC(=O)[C@H](Cc1ccc(O)cc1)NC(=N)N)C(=O)NC[C@H](Cc1ccccc1)NC(=N)N [Example 4] | 13.4 µL/min/mg | 9.54 µL/min/mg | – | -0.3 | 5070 nM | –
5 | Cc1cc(O)cc(C)c1C[C@H](NC(=N)N)C(=O)N[C@H](C)C(=O)NC[C@H](Cc1ccccc1)NC(=O)CNC(=N)N [Example 5] | – | – | 47.6 nM | – | – | –
6 | Cc1cc(O)cc(C)c1C[C@H](NC(=N)N)C(=O)N[C@H](C)C(=O)NC[C@H](Cc1ccccc1)NC(=O)CCNC(=N)N [Example 6] | 8.5 µL/min/mg | 8 µL/min/mg | – | – | 162 nM | –
7 | Cc1cc(O)cc(C)c1C[C@H](NC(=N)N)C(=O)N[C@H](CCCCCC(=O)O)C(=O)NCCCc1ccccc1 [Example 7] | 9.48 µL/min/mg | 8.61 µL/min/mg | – | 0.8 | 2460 nM | IC50 (mu opioid receptor [4]): 116 nM
8 | CC(=O)N[C@H](CNC(=O)[C@@H](C)NC(=O)[C@H](Cc1c(C)cc(O)cc1C)NC(=N)N)Cc1ccccc1 [Example 8] | 12.1 µL/min/mg | 15.4 µL/min/mg | – | -0.35 | – | IC50 (mu opioid receptor [4]; [9]): 26.6 nM
9 | Cc1cc(O)cc(C)c1C[C@H](NC(=N)N)C(=O)N[C@H](C)C(=O)NC[C@@H](N)Cc1ccccc1 [Example 9] | 12.9 µL/min/mg | 13.6 µL/min/mg | 55.2 nM | – | – | IC50 (mu opioid receptor [4]; [9]): 15.3 nM
10 | Cc1cc(O)cc(C)c1C[C@H](NC(=N)N)C(=O)N[C@H](CC[S+](C)[O-])C(=O)NC[C@H](Cc1ccccc1)NC(=N)N (stereo partly drawn) [Example 10, N-alpha-[amino(imino)methyl]-N-[(1R)-1-{[(2S)-2-{[amino(imino)methyl]amino}-3-phenypropyl]carbamoyl}-3-(methylsulfinyl)propyl]-2,6-dimethyl-L-tyrosinamide bis-trifluoroacetate] | – | – | 17.6 nM | – | – | –
11 | Cc1cc(O)cc(C)c1C[C@H](NC(=N)N)C(=O)N[C@H](C)C(=O)NCCCc1ccccc1 [Example 11, (S)-2-Guanidino-3-(4-hydroxy-2,6-dimethyl-phenyl)-N-[(R)-1-(3-phenyl-propylcarbamoyl)-ethyl]-propionamide] | – | – | – | – | – | IC50 (mu opioid receptor [4]): 8.59 nM; microsomal CLint at 1 μM ([1]; pooled rat liver microsomes, pH 7.4, 1 μM substrate): 61 µL/min/mg; microsomal CLint at 1 μM ([2]; pooled human liver microsomes, pH 7.4, 1 μM substrate): 74 µL/min/mg; logD (physchem; octanol / 0.1 M phosphate buffer): -0.1
12 | CN(C)CCC=C1c2ccccc2CCc2ccccc21 [amitriptyline] | – | – | – | – | – | log D (known value of positive control) [5]: 2.7±0.2
13 | Cc1ncc2n1-c1ccc(Cl)cc1C(c1ccccc1F)=NC2 [midazolam] | – | – | – | – | – | log D (known value of positive control) [5]: 3.3±0.2
